According to US9428503B2, “Imidazo[4,5-c]quinolin-2-one compounds and their use in treating Cancer” (AstraZeneca AB, priority 2014, dated 2016):
pIC50: −log10 of the molar value. “And” between values parts separate entries of the source, which are not always exact repeats. Equal entries are not always repeated. Structures can show the parent of a compound that is named as a salt.

Key:
Type in all cases: cell-based
[1] = target: PI3K-α (Homo sapiens, UniProt P42336); assay: Assay c) PI3K cellular potency assay (phospho-Akt T308 ELISA in BT474 cells); conditions: BT474 cells, phospho-Akt T308, 2 h; geometric mean where repeated; read-out: Assay c) PI3Kα Cell IC50
PI3K-α, sequence (P42336 whole entry, looked up): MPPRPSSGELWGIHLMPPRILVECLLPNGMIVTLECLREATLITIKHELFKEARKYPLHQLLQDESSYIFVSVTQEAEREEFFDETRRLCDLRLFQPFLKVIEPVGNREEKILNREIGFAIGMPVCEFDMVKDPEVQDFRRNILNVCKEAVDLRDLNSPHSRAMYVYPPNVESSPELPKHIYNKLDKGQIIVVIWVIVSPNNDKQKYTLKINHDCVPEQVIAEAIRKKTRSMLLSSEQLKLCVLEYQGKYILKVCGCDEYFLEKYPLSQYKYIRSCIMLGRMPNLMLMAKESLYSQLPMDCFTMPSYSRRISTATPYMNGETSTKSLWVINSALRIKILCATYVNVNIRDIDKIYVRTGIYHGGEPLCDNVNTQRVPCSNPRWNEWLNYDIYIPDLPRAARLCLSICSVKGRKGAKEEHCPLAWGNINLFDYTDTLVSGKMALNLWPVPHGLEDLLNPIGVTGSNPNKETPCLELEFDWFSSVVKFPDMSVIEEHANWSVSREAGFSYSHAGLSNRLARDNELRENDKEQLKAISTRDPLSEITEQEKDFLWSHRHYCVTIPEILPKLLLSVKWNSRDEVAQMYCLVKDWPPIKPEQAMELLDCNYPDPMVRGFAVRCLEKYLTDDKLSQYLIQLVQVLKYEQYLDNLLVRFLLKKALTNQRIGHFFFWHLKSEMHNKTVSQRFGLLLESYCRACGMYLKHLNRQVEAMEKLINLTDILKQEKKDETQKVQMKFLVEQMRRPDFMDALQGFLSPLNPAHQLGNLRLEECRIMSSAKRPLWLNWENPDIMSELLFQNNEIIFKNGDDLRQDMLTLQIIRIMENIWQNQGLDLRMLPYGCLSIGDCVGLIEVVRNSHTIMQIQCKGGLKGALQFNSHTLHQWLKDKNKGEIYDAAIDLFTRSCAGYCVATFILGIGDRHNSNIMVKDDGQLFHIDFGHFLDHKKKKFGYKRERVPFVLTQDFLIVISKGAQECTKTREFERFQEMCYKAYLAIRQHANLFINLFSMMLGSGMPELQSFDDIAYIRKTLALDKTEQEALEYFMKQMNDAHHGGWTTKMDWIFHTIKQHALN

[2] = target: mTOR (Homo sapiens (Human), UniProt P42345); assay: Assay d) mTOR cellular potency assay (phospho-AKT Ser473 in MDA-MB-468 cells); conditions: MDA-MB-468 cells, phospho-AKT Ser473, 2 h; geometric mean where repeated; read-out: Assay d) mTOR Cell IC50
[3] = target: ATM kinase (Homo sapiens (Human), UniProt Q13315); assay: Assay a) ATM cellular potency assay (pATM Ser1981 in X-ray irradiated HT29 cells); conditions: HT29 cells, pATM Ser1981 after X-ray irradiation; geometric mean where repeated; read-out: Assay a) ATM Cell IC50
ATM kinase, sequence (Q13315 whole entry): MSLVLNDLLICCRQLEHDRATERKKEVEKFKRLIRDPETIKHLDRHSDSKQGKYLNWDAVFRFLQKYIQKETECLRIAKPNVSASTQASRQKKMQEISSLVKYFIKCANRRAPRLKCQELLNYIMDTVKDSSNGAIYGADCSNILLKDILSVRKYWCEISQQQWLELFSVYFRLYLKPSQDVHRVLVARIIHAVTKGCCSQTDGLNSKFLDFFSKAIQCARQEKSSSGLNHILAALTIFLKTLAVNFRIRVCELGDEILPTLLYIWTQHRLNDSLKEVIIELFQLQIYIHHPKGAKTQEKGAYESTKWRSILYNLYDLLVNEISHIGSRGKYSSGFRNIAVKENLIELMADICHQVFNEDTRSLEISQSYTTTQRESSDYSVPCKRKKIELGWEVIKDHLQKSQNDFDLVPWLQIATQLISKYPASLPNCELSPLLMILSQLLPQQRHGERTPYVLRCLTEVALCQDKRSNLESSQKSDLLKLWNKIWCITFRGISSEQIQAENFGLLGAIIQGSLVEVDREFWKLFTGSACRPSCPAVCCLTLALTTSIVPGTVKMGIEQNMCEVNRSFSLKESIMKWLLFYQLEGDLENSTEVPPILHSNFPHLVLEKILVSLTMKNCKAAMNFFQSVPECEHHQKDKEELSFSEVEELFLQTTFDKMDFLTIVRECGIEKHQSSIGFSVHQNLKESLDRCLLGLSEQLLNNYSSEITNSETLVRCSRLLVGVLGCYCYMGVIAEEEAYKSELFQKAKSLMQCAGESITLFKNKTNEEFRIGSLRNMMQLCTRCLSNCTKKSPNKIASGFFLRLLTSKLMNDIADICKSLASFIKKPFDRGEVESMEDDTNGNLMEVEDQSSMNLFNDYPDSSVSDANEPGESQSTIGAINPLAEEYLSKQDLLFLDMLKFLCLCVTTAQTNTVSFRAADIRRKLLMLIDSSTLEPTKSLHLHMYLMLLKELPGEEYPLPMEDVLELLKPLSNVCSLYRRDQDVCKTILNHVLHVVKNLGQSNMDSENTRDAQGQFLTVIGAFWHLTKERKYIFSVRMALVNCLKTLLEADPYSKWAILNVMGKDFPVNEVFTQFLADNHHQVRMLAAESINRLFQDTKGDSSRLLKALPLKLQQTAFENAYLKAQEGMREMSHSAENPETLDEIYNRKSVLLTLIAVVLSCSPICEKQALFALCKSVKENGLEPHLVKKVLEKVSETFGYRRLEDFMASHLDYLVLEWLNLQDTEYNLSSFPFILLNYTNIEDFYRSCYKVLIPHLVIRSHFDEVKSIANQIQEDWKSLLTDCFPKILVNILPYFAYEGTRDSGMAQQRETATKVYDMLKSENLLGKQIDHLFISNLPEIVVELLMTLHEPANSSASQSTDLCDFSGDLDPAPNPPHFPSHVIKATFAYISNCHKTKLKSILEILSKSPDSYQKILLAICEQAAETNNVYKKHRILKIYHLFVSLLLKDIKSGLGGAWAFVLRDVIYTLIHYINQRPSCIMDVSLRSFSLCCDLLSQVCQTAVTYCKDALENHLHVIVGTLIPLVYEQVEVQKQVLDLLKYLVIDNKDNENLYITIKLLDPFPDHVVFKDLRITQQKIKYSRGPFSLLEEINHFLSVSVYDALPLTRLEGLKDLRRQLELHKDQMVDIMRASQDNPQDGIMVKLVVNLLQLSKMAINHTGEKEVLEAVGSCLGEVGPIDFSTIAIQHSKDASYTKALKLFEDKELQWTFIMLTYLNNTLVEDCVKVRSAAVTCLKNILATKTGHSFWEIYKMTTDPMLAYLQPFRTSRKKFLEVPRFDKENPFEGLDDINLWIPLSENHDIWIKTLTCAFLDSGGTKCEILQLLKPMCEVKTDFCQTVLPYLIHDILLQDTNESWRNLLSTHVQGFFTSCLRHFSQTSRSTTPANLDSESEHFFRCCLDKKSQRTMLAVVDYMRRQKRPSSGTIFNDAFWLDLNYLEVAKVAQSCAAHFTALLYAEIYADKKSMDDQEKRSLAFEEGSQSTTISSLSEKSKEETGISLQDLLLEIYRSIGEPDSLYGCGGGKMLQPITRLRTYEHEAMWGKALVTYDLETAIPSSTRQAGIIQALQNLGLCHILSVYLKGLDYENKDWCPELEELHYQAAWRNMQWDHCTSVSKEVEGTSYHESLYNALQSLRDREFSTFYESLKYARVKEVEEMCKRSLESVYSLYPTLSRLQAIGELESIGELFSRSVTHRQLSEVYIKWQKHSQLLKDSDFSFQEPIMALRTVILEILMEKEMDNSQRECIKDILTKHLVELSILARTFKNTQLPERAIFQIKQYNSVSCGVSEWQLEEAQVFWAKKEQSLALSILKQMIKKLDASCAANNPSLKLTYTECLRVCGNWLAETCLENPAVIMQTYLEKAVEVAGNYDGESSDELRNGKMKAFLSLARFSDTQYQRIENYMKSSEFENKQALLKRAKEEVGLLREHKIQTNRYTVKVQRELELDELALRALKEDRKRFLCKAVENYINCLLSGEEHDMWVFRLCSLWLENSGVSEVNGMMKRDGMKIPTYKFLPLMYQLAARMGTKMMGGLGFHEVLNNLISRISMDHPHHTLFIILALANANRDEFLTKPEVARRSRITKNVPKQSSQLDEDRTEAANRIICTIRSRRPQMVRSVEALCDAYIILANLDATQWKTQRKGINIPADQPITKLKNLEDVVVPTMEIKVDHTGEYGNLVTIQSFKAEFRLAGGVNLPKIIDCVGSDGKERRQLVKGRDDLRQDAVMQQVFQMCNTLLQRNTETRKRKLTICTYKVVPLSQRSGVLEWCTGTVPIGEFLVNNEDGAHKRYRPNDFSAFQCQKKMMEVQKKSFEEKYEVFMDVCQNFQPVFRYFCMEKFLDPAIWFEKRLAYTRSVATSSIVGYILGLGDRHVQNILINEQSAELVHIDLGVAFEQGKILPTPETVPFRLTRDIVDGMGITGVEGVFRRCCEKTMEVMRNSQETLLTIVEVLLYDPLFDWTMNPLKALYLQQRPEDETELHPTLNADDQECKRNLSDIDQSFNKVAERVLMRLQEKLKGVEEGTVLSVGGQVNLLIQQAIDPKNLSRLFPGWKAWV

[4] = target: ATR kinase (Homo sapiens (Human), UniProt Q13535); assay: Assay b) ATR cellular potency assay (pChk1 Ser345 in HT29 cells treated with 4NQO); conditions: HT29 cells, pChk1 Ser345 after 4NQO; geometric mean where repeated; read-out: Assay b) ATR Cell IC50

| Compound | pIC50 [1] | pIC50 [2] | pIC50 [3] | pIC50 [4] |
| --- | --- | --- | --- | --- |
| CO[C@H]1C[C@@H](n2c(=O)n(C)c3cnc4ccc(-c5ccc(OCCCN6CCCCC6)nc5)cc4c32)C1 [Example 33, 1-(cis-3-methoxycyclobutyl)-3-methyl-8-[6-(3-piperidin-1-ylpropoxy)pyridin-3-yl]imidazo[4,5-c]quinolin-2-one] | 4.91 | 5.54 |  |  |
| CO[C@H]1C[C@@H](n2c(=O)[nH]c3cnc4ccc(-c5ccc(OCCCN(C)C)nc5)cc4c32)C1 [Example 12, 8-[6-(3-dimethylaminopropoxy)pyridin-3-yl]-1-(cis-3-methoxycyclobutyl)-3H-imidazo[4,5-c]quinolin-2-one] | 6.11 | 6.27 | 8.99 | < 4.60 |
| Cn1c(=O)n([C@H]2C[C@@H](O)C2)c2c3cc(-c4ccc(OCCCN5CCCC5)nc4)ccc3ncc21 [Example 15, 1-(cis-3-hydroxycyclobutyl)-3-methyl-8-[6-(3-pyrrolidin-1-ylpropoxy)pyridin-3-yl]imidazo[4,5-c]quinolin-2-one] | 5.62 | 5.59 | 9.35 | < 4.52 |
| Cn1c(=O)n([C@H]2CCCOC2)c2c3cc(-c4ccc(OCCCN5CCCC5)nc4F)ccc3ncc21 [Example 61, 8-[2-Fluoro-6-(3-pyrrolidin-1-ylpropoxy)-3-pyridyl]-3-methyl-1-[(3S)-tetrahydropyran-3-yl]imidazo[4,5-c]quinolin-2-one] | < 4.79 |  | 9.26 | < 4.52 |
| Cn1c(=O)n([C@@H]2CCCOC2)c2c3cc(-c4ccc(OCCCN5CCC5)nc4)ccc3ncc21 [Example 34, 8-[6-[3-(azetidin-1-yl)propoxy]pyridin-3-yl]-3-mehtyl-1-[(3R)-oxan-3-yl]imidazo[5,4-c]quinolin-2-one] | 6.40 | 6.30 | 9.08 | < 4.77 |
| CO[C@H]1C[C@@H](n2c(=O)n(C)c3cnc4cc(F)c(-c5ccc(OCCCN6CCCC6)nc5)cc4c32)C1 [Example 27, 7-Fluoro-1-(cis-3-methoxycyclobutyl)-3-methyl-8-[6-(3-pyrrolidin-1-ylpropoxy)pyridin-3-yl]imidazo[4,5-c]quinolin-2-one] | < 4.53 | < 4.76 |  | < 4.63 |
| Cn1c(=O)n([C@@H]2CCOC2)c2c3cc(-c4ccc(OCCCN5CCCCC5)nc4)ccc3ncc21 [Example 54, 3-methyl-8-[6-[3-(1-piperidyl)propoxy]-3-pyridyl]-1-[(3R)-tetrahydrofuran-3-yl]imidazo[4,5-c]quinolin-2-one methane sulfonic acid salt] |  |  | 8.96 and 9.15 | < 4.57 |
| CO[C@@H]1CC[C@@H](n2c(=O)n(C)c3cnc4cc(F)c(-c5ccc(OCCCN(C)C)nc5)cc4c32)C1 [Example 62, 8-[6-[3-(Dimethylamino)propoxy]-3-pyridyl]-7-fluoro-1-[(1R,3R)-3-methoxycyclopentyl]-3-methyl-imidazo[4,5-c]quinolin-2-one] |  | < 4.52 | 9.29 |  |
| CN(C)CCCOc1ccc(-c2ccc3ncc4c(c3c2)n([C@H]2CCCOC2)c(=O)n4C)cn1 [Example 17, 8-[6-(3-dimethylaminopropoxy)pyridin-3-yl]-3-methyl-1-[(3S)-oxan-3-yl]imidazo[5,4-c]quinolin-2-one] | 6.01 | 5.83 |  | < 4.52 |
| Cn1c(=O)n([C@@H]2CCCOC2)c2c3cc(-c4ccc(OCCCN5CCCC5)nc4)ccc3ncc21 [Example 59, 3-methyl-8-[6-(3-pyrrolidin-1-ylpropoxy)-3-pyridyl]-1-[(3R)-tetrahydropyran-3-yl]imidazo[4,5-c]quinolin-2-one] | 6.58 | 6.21 |  | < 4.72 |
| Cn1c(=O)n([C@H]2CCCOC2)c2c3cc(-c4ccc(OCCCN5CCCC5)nc4)ccc3ncc21 [Example 29, 3-methyl-1-[(3S)-oxan-3-yl]-8-[6-(3-pyrrolidin-1-ylpropoxy)pyridin-3-yl]imidazo[5,4-c]quinolin-2-one] | 5.78 | 6.22 |  | 4.72 |
| Cn1c(=O)n(C2CCOCC2)c2c3cc(-c4ccc(OCCCN5CCCC5)nc4)ccc3ncc21 [Example 30, 3-methyl-1-(oxan-4-yl)-8-[6-(3-pyrrolidin-1-ylpropoxy)pyridin-3-yl]imidazo[5,4-c]quinolin-2-one] | 5.63 | 5.80 |  | 4.72 |
| CN(C)CCCOc1ccc(-c2ccc3ncc4c(c3c2)n(C2CCC2)c(=O)n4C)cn1 [Example 46, 1-cyclobutyl-8-[6-[3-(dimethylamino)propoxy]-3-pyridyl]-3-methyl-imidazo[4,5-c]quinolin-2-one methanesulfonic acid salt] | 6.10 |  | 8.50 | < 4.59 |
| Cn1c(=O)n([C@H]2CCOC2)c2c3cc(-c4ccc(OCCCN5CCCCC5)nc4)ccc3ncc21 [Example 55, 3-methyl-8-[6-[3-(1-piperidyl)propoxy]-3-pyridyl]-1-[(3S)-tetrahydrofuran-3-yl]imidazo[4,5-c]quinolin-2-one] |  |  | 9.31 | < 4.79 |
| CN(C)CCCOc1ccc(-c2ccc3ncc4c(c3c2)n([C@@H]2CCCOC2)c(=O)n4C)cn1 [Example 16, 8-[6-(3-dimethylaminopropoxy)pyridin-3-yl]-3-methyl-1-[(3R)-oxan-3-yl]imidazo[5,4-c]quinolin-2-one] | 6.51 | 6.15 |  | < 4.64 |
| CO[C@H]1CC[C@H](n2c(=O)n(C)c3cnc4ccc(-c5ccc(OCCCN6CCCC6)nc5)cc4c32)C1 [Example 66, 1-[(1S,3S)-3-methoxycyclopentyl]-3-methyl-8-[6-(3-pyrrolidin-1-ylpropoxy)-3-pyridyl]imidazo[4,5-c]quinolin-2-one] | 5.83 | 5.48 |  | 5.11 |
| CO[C@H]1C[C@@H](n2c(=O)n(C)c3cnc4ccc(-c5ccc(OCCCN6CCCC6)nc5)cc4c32)C1 [Example 28, 1-(cis-3-methoxycyclobutyl)-3-methyl-8-[6-(3-pyrroldin-1-ylpropoxy)pyridin-3-yl]imidazo[4,5-c]quinolin-2-one] |  | 5.56 | 9.75 | < 4.64 |
| CO[C@@H]1CC[C@@H](n2c(=O)n(C)c3cnc4ccc(-c5ccc(OCCCN6CCCC6)nc5)cc4c32)C1 [Example 67, 1-[(1R,3R)-3-methoxycyclopentyl]-3-methyl-8-[6-(3-pyrrolidin-1-ylpropoxy)-3-pyridyl]imidazo[4,5-c]quinolin-2-one] | < 5.55 | 6.00 |  | 4.82 |

Results, then the compound that gave them:

| pIC50 [1] | pIC50 [2] | pIC50 [3] | pIC50 [4] | Compound |
| --- | --- | --- | --- | --- |
| 5.49 | 5.27 | 9.14 | < 4.52 | CN(C)CCCOc1ccc(-c2ccc3ncc4c(c3c2)n(C2CCC2)c(=O)n4C)c(F)n1 [Example 51, 1-cyclobutyl-8-[6-[3-(dimethylamino)propoxy]-2-fluoro-3-pyridyl]-3-methyl-imidazo[4,5-c]quinolin-2-one methanesulfonic acid salt] |
| 6.07 | 5.86 | 9.26 | < 4.52 | CN(C)CCCOc1ccc(-c2ccc3ncc4c(c3c2)n([C@@H]2CCCOC2)c(=O)n4C)c(F)n1 [Example 22, 8-[6-(3-dimethylaminopropoxy)-2-fluoropyridin-3-yl]-3-methyl-1-[(3R)-oxan-3-yl]imidazo[5,4-c]quinolin-2-one] |
| < 5.03 | 4.64 | 8.99 | < 4.52 | CN(C)CCCOc1ccc(-c2cc3c(cc2F)ncc2c3n([C@H]3CCCOC3)c(=O)n2C)c(F)n1 [Example 48, 8-[6-[3-(Dimethylamino)propoxy]-2-fluoro-3-pyridyl]-7-fluoro-3-methyl-1-[(3S)-tetrahydropyran-3-yl]imidazo[4,5-c]quinolin-2-one methanesulfonic acid salt] |
|  | 5.42 | 8.87 | < 4.52 | CN(C)CCCOc1ccc(-c2ccc3ncc4c(c3c2)n([C@H]2CCOC2)c(=O)n4C)c(F)n1 [Example 49, 8-[6-[3-(dimethylamino)propoxy]-2-fluoro-3-pyridyl]-3-methyl-1-[(3S)-tetrahydrofuran-3-yl]imidazo[4,5-c]quinolin-2-one methanesulfonic acid salt] |
| 5.56 | 5.42 |  | < 4.52 | CO[C@H]1C[C@@H](n2c(=O)n(C)c3cnc4ccc(-c5ccc(OCCCN(C)C)nc5F)cc4c32)C1 [Example 18, 8-[6-(3-dimethylaminopropoxy)-2-fluoropyridin-3-yl]-1-(cis-3-methoxycyclobutyl)-3-methylimidazo[4,5-c]quinolin-2-one] |
| 5.14 | 4.92 |  | < 4.52 | CN(C)CCCOc1ccc(-c2ccc3ncc4c(c3c2)n(C2COC2)c(=O)n4C)c(F)n1 [Example 52, 8-[6-[3-(dimethylamino)propoxy]-2-fluoro-3-pyridyl]-3-methyl-1-(oxetan-3-yl)imidazo[4,5-c]quinolin-2-one methanesulfonic acid salt] |
| < 5.56 |  | 9.49 | < 4.52 | CO[C@H]1CC[C@H](n2c(=O)n(C)c3cnc4ccc(-c5ccc(OCCCN(C)C)nc5F)cc4c32)C1 [Example 69, 8-[6-[3-(dimethylamino)propoxy]-2-fluoro-3-pyridyl]-1-[(1S,3S)-3-methoxycyclopentyl]-3-methyl-imidazo[4,5-c]quinolin-2-one] |
|  | 5.35 | 8.84 | < 4.52 | CN(C)CCCOc1ccc(-c2ccc3ncc4c(c3c2)n([C@@H]2CCOC2)c(=O)n4C)c(F)n1 [Example 50] |
